Earlier results in patent publication US12205808B2 (priority 2019, dated 2025).

Conditions: in vivo

Structure (SMILES)	Concentration in plasma [ng/mL]	Whole blood concentrations [ng/mL]	Concentration in postmortem plasma samples [ng/mL]
CC(C)[C@H](NC(=O)c1nn(CC2CCCCC2)c2ccccc12)C(N)=O	0.4 to 14.3	0.6 to 10	
N#CCCCCn1cc(C(=O)c2cccc3ccccc23)c2ccccc21 [AM-2232]			0.86
Cc1ccc(C(=O)c2cn(CCCCCF)c3ccccc23)c2ccccc12 [MAM-2201]			16.3
